Reference: BindingDB's records for doi:10.7270/Q2Z31X1B (Nmmlsc, 2007)

Biological target: T1, fMet-Leu-Phe receptor (Homo sapiens, UniProt P21462)
T1 sequence (P21462 whole entry): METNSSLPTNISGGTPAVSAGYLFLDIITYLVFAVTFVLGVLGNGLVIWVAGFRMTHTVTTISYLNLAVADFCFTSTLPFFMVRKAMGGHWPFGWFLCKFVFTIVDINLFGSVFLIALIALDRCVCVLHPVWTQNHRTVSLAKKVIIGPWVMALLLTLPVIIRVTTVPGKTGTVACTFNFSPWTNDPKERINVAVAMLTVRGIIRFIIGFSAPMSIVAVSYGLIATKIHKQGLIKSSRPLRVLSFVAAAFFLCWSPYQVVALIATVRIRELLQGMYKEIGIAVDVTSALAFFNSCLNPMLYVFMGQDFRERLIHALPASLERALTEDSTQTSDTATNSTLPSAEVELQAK
Experiment: FPR1 fluorescent ligand binding inhibitors, dose response, cell-based, flow cytometry, Ki from IC50 (AID 724)

Ki | Compound
11.2 µM | CC(=O)C1C(=O)C(=O)N(CCc2c(C)[nH]c3ccccc23)C1c1cccc(F)c1 (centres undefined)
> 44.3 µM | COc1ccc(C(=O)C2C(=O)C(=O)N(CCc3c[nH]c4ccccc34)C2c2ccc(C(C)C)cc2)cc1 (centres undefined)
4.7 µM | COc1ccc(C2C(C(=O)c3cccs3)C(=O)C(=O)N2CCCn2ccnc2)cc1 (centres undefined) [1-(3-imidazol-1-ylpropyl)-2-(4-methoxyphenyl)-4-oxidanyl-3-thiophen-2-ylcarbonyl-2H-pyrrol-5-one]
> 44.3 µM | COc1cc(C2C(C(C)=O)C(=O)C(=O)N2c2ccc(Br)cc2)ccc1O (centres undefined) [1-(4-bromophenyl)-3-ethanoyl-2-(3-methoxy-4-oxidanyl-phenyl)-4-oxidanyl-2H-pyrrol-5-one]
2.9 µM | COc1ccc(C2C(C(=O)c3cccs3)C(=O)C(=O)N2CCN2CCOCC2)c(OC)c1 (centres undefined) [2-(2,4-dimethoxyphenyl)-1-(2-morpholin-4-ylethyl)-4-oxidanyl-3-thiophen-2-ylcarbonyl-2H-pyrrol-5-one]
> 44.3 µM | COc1ccc(C2C(C(=O)c3ccco3)C(=O)C(=O)N2CCCN2CCOCC2)cc1OC (centres undefined) [2-(3,4-dimethoxyphenyl)-3-(furan-2-carbonyl)-4-hydroxy-1-(3-morpholin-4-ylpropyl)-2H-pyrrol-5-one]
6.9 µM | O=C1C(=O)N(CCc2ccccc2)C(c2ccc(Cl)cc2)C1C(=O)c1cccs1 (centres undefined) [2-(4-chlorophenyl)-4-hydroxy-1-(2-phenylethyl)-3-(thiophene-2-carbonyl)-2H-pyrrol-5-one]
> 44.3 µM | COc1cc(C2C(C(=O)c3cc4ccccc4o3)C(=O)C(=O)N2CCN(C)C)ccc1O (centres undefined) [3-(1-benzofuran-2-carbonyl)-1-[2-(dimethylamino)ethyl]-4-hydroxy-2-(4-hydroxy-3-methoxyphenyl)-2H-pyrrol-5-one]
> 44.3 µM | COc1ccc(C2C(C(=O)c3cc4ccccc4o3)C(=O)C(=O)N2CCN(C)C)cc1OC (centres undefined) [3-(1-benzofuran-2-carbonyl)-2-(3,4-dimethoxyphenyl)-1-[2-(dimethylamino)ethyl]-4-hydroxy-2H-pyrrol-5-one]
> 44.3 µM | O=C1C(=O)N(CCCn2ccnc2)C(c2cccnc2)C1C(=O)c1cc2ccccc2o1 (centres undefined) [3-(1-benzofuran-2-carbonyl)-4-hydroxy-1-(3-imidazol-1-ylpropyl)-2-pyridin-3-yl-2H-pyrrol-5-one]
> 44.3 µM | O=C1C(=O)N(CCCN2CCOCC2)C(c2cccnc2)C1C(=O)c1cc2ccccc2o1 (centres undefined) [3-(1-benzofuran-2-carbonyl)-4-hydroxy-1-(3-morpholin-4-ylpropyl)-2-pyridin-3-yl-2H-pyrrol-5-one]
> 44.3 µM | O=C1C(=O)N(CCCn2ccnc2)C(c2cccnc2)C1C(=O)c1ccco1 (centres undefined) [3-(furan-2-carbonyl)-4-hydroxy-1-(3-imidazol-1-ylpropyl)-2-pyridin-3-yl-2H-pyrrol-5-one]
> 44.3 µM | COc1ccc(OC)c(C2C(C(=O)c3ccc(C)cc3)C(=O)C(=O)N2CCC(=O)O)c1 (centres undefined) [3-[(3E)-2-(2,5-dimethoxyphenyl)-3-[(4-methylphenyl)-oxidanyl-methylidene]-4,5-bis(oxidanylidene)pyrrolidin-1-yl]propanoic acid]
> 44.3 µM | O=C(O)CCCN1C(=O)C(=O)C(C(=O)c2ccccc2)C1/C=C/c1ccccc1 (centres undefined) [4-[(4E)-2,3-bis(oxidanylidene)-4-[oxidanyl(phenyl)methylidene]-5-[(E)-2-phenylethenyl]pyrrolidin-1-yl]butanoic acid]
6.4 µM | COc1ccc(C2C(C(=O)c3ccco3)C(=O)C(=O)N2CCN2CCOCC2)c(OC)c1 (centres undefined) [5-(2,4-dimethoxyphenyl)-4-(furan-2-carbonyl)-3-hydroxy-1-(2-morpholinoethyl)-1H-pyrrol-2(5H)-one]
16.8 µM | COc1ccc(OC)c(C2C(C(=O)c3ccccc3)C(=O)C(=O)N2c2ccc(C)c(Cl)c2)c1 (centres undefined) [(4E)-1-(3-chloranyl-4-methyl-phenyl)-5-(2,5-dimethoxyphenyl)-4-[oxidanyl(phenyl)methylidene]pyrrolidine-2,3-dione]
31.1 µM | COc1ccc(C2C(C(=O)c3ccccc3)C(=O)C(=O)N2c2cccc(Cl)c2)c(OC)c1 (centres undefined) [(4E)-1-(3-chlorophenyl)-5-(2,4-dimethoxyphenyl)-4-[hydroxy(phenyl)methylene]pyrrolidine-2,3-quinone]

Ki | Compound
20.3 µM | COCCCN1C(=O)C(=O)C(C(=O)c2ccccc2)C1c1ccc(C(C)C)cc1 (centres undefined) [(4E)-1-(3-methoxypropyl)-4-[oxidanyl(phenyl)methylidene]-5-(4-propan-2-ylphenyl)pyrrolidine-2,3-dione]
> 44.3 µM | Cc1ccc(C(=O)C2C(=O)C(=O)N(c3nnc(C)s3)C2c2ccc(C(C)C)cc2)cc1 (centres undefined) [(4E)-4-[(4-methylphenyl)-oxidanyl-methylidene]-1-(5-methyl-1,3,4-thiadiazol-2-yl)-5-(4-propan-2-ylphenyl)pyrrolidine-2,3-dione]
33.2 µM | CC(C)c1ccc(C2C(C(=O)c3ccccc3)C(=O)C(=O)N2Cc2cccnc2)cc1 (centres undefined) [(4E)-4-[hydroxy(phenyl)methylene]-5-p-cumenyl-1-(3-pyridylmethyl)pyrrolidine-2,3-quinone]
3.4 µM | COc1ccc(C2C(C(=O)c3ccccc3)C(=O)C(=O)N2CCCn2ccnc2)c(OC)c1 (centres undefined) [(4E)-5-(2,4-dimethoxyphenyl)-1-(3-imidazol-1-ylpropyl)-4-[oxidanyl(phenyl)methylidene]pyrrolidine-2,3-dione]
39.1 µM | COc1ccc(C2C(C(=O)c3ccc(C)cc3)C(=O)C(=O)N2Cc2cccnc2)c(OC)c1 (centres undefined) [(4E)-5-(2,4-dimethoxyphenyl)-4-[(4-methylphenyl)-oxidanyl-methylidene]-1-(pyridin-3-ylmethyl)pyrrolidine-2,3-dione]
1.8 µM | COCCN1C(=O)C(=O)C(C(=O)c2ccccc2)C1c1cc(OC)ccc1OC (centres undefined) [(4E)-5-(2,5-dimethoxyphenyl)-1-(2-methoxyethyl)-4-[oxidanyl(phenyl)methylidene]pyrrolidine-2,3-dione]
6 µM | COc1ccc(OC)c(C2C(C(=O)c3ccccc3)C(=O)C(=O)N2c2cccnc2)c1 (centres undefined) [(4E)-5-(2,5-dimethoxyphenyl)-4-[hydroxy(phenyl)methylene]-1-(3-pyridyl)pyrrolidine-2,3-quinone]
33 µM | COCCCN1C(=O)C(=O)C(C(=O)c2ccccc2)C1c1ccc(O)c(OC)c1 (centres undefined) [(4E)-5-(3-methoxy-4-oxidanyl-phenyl)-1-(3-methoxypropyl)-4-[oxidanyl(phenyl)methylidene]pyrrolidine-2,3-dione]
> 44.3 µM | O=C1C(=O)N(CN2CCOCC2)C(c2ccc(Br)cc2)C1C(=O)c1ccccc1 (centres undefined) [(4E)-5-(4-bromophenyl)-1-(morpholin-4-ylmethyl)-4-[oxidanyl(phenyl)methylidene]pyrrolidine-2,3-dione]
> 44.3 µM | O=C1NC(c2ccc(Br)cc2)C(C(=O)c2ccc(Cl)cc2)C1=O (centres undefined) [(4E)-5-(4-bromophenyl)-4-[(4-chlorophenyl)-hydroxy-methylene]pyrrolidine-2,3-quinone]
> 44.3 µM | Cc1ccc(C(=O)C2C(=O)C(=O)N(Cc3cccnc3)C2c2ccc(Br)cc2)cc1 (centres undefined) [(4E)-5-(4-bromophenyl)-4-[(4-methylphenyl)-oxidanyl-methylidene]-1-(pyridin-3-ylmethyl)pyrrolidine-2,3-dione]
> 44.3 µM | Cc1ccc(N2C(=O)C(=O)C(C(=O)c3ccccc3)C2c2cccc(F)c2)cc1Br (centres undefined) [(4Z)-1-(3-bromanyl-4-methyl-phenyl)-5-(3-fluorophenyl)-4-[oxidanyl(phenyl)methylidene]pyrrolidine-2,3-dione]
4.7 µM | CCCCCCN1C(=O)C(=O)C(C(=O)c2ccccc2)C1c1ccc(O)c(OC)c1 (centres undefined) [(4Z)-1-hexyl-5-(3-methoxy-4-oxidanyl-phenyl)-4-[oxidanyl(phenyl)methylidene]pyrrolidine-2,3-dione]
> 44.3 µM | COc1ccc(C(=O)C2C(=O)C(=O)NC2c2ccc(OC)cc2OC)cc1 (centres undefined) [(4Z)-5-(2,4-dimethoxyphenyl)-4-[(4-methoxyphenyl)-oxidanyl-methylidene]pyrrolidine-2,3-dione]
> 44.3 µM | CCCCCCOc1cccc(N2C(=O)C(=O)C(C(=O)c3ccccc3)C2c2cccc(F)c2)c1 (centres undefined) [(4Z)-5-(3-fluorophenyl)-1-(3-hexoxyphenyl)-4-[hydroxy(phenyl)methylene]pyrrolidine-2,3-quinone]
> 44.3 µM | O=C1C(=O)N(c2ccc(F)cc2)C(c2ccc(Br)cc2)C1C(=O)c1ccccc1 (centres undefined) [(4Z)-5-(4-bromophenyl)-1-(4-fluorophenyl)-4-[hydroxy(phenyl)methylene]pyrrolidine-2,3-quinone]
> 44.3 µM | N#Cc1c(N=C(CC(=O)c2ccccc2)C(=O)O)sc2c1CCC2 [(Z)-2-[(3-cyano-5,6-dihydro-4H-cyclopenta[b]thiophen-2-yl)amino]-4-keto-4-phenyl-but-2-enoic acid]
